Results: paper PMC4487512 (Biochemical pharmacology, 2009)
Marks after values point to notes of the source that are not given here.

Legend:
[1] = system: cryopreserved human hepatocytes; conditions: for HμREL clearance CLhurel: flow 4.5 μL/min/chip, 30,000 hepatocytes per chamber, 100 μL; for Depletion of the parent compound, HμREL device: human hepatocytes under flow, at 24 h
[2] = system: cryopreserved human hepatocytes; conditions: at 24 h
[3] = human, known in vivo clearance values; ref literature (citation not given); cited from earlier work

With `O=C1CC2(CCCC2)CC(=O)N1CCCCN1CCN(c2ncccn2)CC1` [Buspirone, buspirone] the “HμREL clearance CLhurel” value [1] was 3.13 μL/min/chip.
In the case of `Cn1c(=O)c2c(ncn2C)n(C)c1=O` [Caffeine, caffeine], the “Depletion of the parent compound, static culture system” value [2] is reported as “did not show significant depletion”, the “HμREL clearance CLhurel” value [1] is reported as 0.01^a μL/min/chip and the “Depletion of the parent compound, HμREL device” value [1] is reported as “did not show significant depletion”.
In the case of `NC(=O)N1c2ccccc2C=Cc2ccccc21` [Carbamazepine, carbamazepine], the “Depletion of the parent compound, static culture system” value [2] is given as “did not show significant depletion”, the In vivo clearance [3] is given as 1.3 ± 0.5 mL/min/kg and the “Depletion of the parent compound, HμREL device” value [1] is given as “did not show significant depletion”.
In the case of `CCCc1nn(C)c2c(=O)[nH]c(-c3cc(S(=O)(=O)N4CCN(C)CC4)ccc3OCC)nc12` [Sildenafil, sildenafil], the In vivo clearance [3] is listed as 6.0 ± 1.1 mL/min/kg and the “HμREL clearance CLhurel” value [1] is listed as 1.13 μL/min/chip.
In the case of `CC(C)(C)NC[C@H](O)COc1nsnc1N1CCOCC1` [Timolol, timolol], the In vivo clearance [3] is given as 7.7 ± 1.2 mL/min/kg and the “HμREL clearance CLhurel” value [1] is given as 0.35 μL/min/chip.
